Structures can show the parent of a compound that is named as a salt.
Experiments:
[1] = tested on: patients with chronic tension-type headache; assay: Open labelled pilot study of prophylactic Dextromethorphan in chronic tension-type headache; type: in vivo, human
From the text: Five patients with a diagnosis of chronic tension-type headache according to the International Headache Society (Headache Classification Committee 1988) were recruited from the outpatient headache clinic at Glostrup Hospital. There were 2 males and 3 females, and the mean age was 45.4 years (range 39-48). The mean life time duration of chronic tension-type headache was 12.2 years (range 4-25). One patient had coexisting but infrequent migraine. Exclusion criteria were: daily major medication (including prophylactic headache therapy); abuse of analgesics or alcohol; serious somatic or psychiatric diseases including depression.
Using an open labelled design, patients fulfilled a diagnostic headache diary during at least 4 weeks run-in period to ensure the diagnostic criteria. Thereafter, the patients received Dextromethorphan (Dexofan®) tablets at 30 mg each, three times per day. The treatment period lasted 4 weeks, and during this period patients were asked to continue with headache diaries, and record headache intensity, frequency, duration, any medication taken and any possible adverse events. At a follow up visit at day 29-32, diaries were collected and possible adverse events and evaluation of the treatment were recorded. Due to the restricted number of patients, no statistical analysis were done. The efficacy parameters were headache intensity, frequency and duration, and intake of simple analgesics. Mean values from the run-in period were compared to those obtained during the treatment period.

[2] = tested on: patients with chronic tension-type headache; assay: Open labelled pilot study of prophylactic Gabapentin in chronic tension-type headache; type: in vivo, human
From the text: Three patients with a diagnosis of chronic tension-type headache according to the International Headache Society (Headache Classification Committee 1988) were recruited from the outpatient headache clinic at Glostrup Hospital. The patients were males with a mean age of 42 years (range 35-49). The mean life time duration of chronic tension-type headache was 16 years (range 7-21). […] Exclusion criteria were: daily major medication (including prophylactic headache therapy); abuse of analgesics or alcohol; serious somatic or psychiatric diseases including depression.
Using an open labelled design, patients fulfilled a diagnostic headache diary during at least 4 weeks run-in period to ensure the diagnostic criteria. Thereafter, the patients received Gabapentin (Neurontin®) tablets, initially 300 mg (one tablet) per day on day one, increasing with 300 mg (1 tablet) per day to 900 mg (3 tablets) on day 3. The treatment period lasted 4 weeks, and during this period patients were asked to continue with headache diaries, and record headache intensity, frequency, duration, any medication taken and any possible adverse events. At a follow up visit at day 29-32, diaries were collected and any adverse events and evaluation of the treatment were recorded. Due to the low number of patients, no statistical analysis were done. The primary efficacy parameters were headache intensity, frequency and duration, and the mean values from the run-in period were compared to those obtained during the treatment period.

GABA A = conditions: binding studies; cited from earlier work
[3] = tested on: alpha-2-subunit of a calcium channel; conditions: Gee et al. 1996; cited from earlier work
[4] = tested on: patients with chronic tension-type headache; assay: Double-blind crossover study of intravenous L-NMMA versus placebo in chronic tension-type headache; type: in vivo, human
Procedure: Five patients with coexisting infrequent migraine (≤ one day/month) were accepted. […] At screening, a full physical and neurological examination, including 12-lead ECG were carried out. Blood samples for routine haematological and biochemical testing, and urine sample for urinanalysis were taken. The patients were not allowed to take analgesics 12 hours prior to the treatment. […] All patients gave written informed consent to participate in the study, which was approved by the local ethics committee and conducted in accordance with the Declaration of Helsinki.
Using a double-blind crossover design, the patients were randomised to receive 6 mg/kg L-NMMA (Clinalfa, Switzerland) or placebo (isotone glucose) on two days with a typical episode of tension-type headache separated by at least one week. Randomisation (Med.Stat) and drug preparation were performed by staff not involved in the study. The medication was given over 15 minutes into an antecubital vein (Braun Perfusor). The following parameters were measured at baseline and 15, 30, 60 and 120 minutes post administration: headache intensity on a 100-mm Visual Analog Scale (VAS) (0 - no headache and 100 - worst imaginable headache) and on a Verbal Rating Scale (VRS) from 0-10 (0 - no headache; 5 - moderate headache; 10 - worst imaginable headache). Blood pressure and pulse rate were measured 5 minutes prior to administration of treatment and at 5, 10, 15, 20, 25, 30, 60, 90 and 120 minutes post administration. Twelve-lead ECG was monitored continuously. Any adverse events were recorded. Patients with unrelieved headache at 120 minutes post treatment were allowed to take rescue medication. All patients were asked to record details of the following on a diary card at 4, 8, 12, 16, 20 and 24 hours post administration: headache intensity on VRS, any medication taken and adverse events. Between 4-7 days after each treatment, the patients returned to the clinic, the diary cards were collected and any adverse events were noted.
The secondary endpoints were reduction of pain intensity at 30, 60, 90 and 120 minutes post dosing on VAS and VRS compared to pre-treatment pain score within each treatment. Comparison of pain intensity on VAS, blood pressure and pulse rate over time between treatments were performed with ANOVA. Paired-Samples T Test was used to compare pre-treatment pain score on VAS with pain score at 30, 60, 90, 120 minutes post dosing within each treatment. […] These sums of differences for each treatment were compared by Wilcoxon Signed Rank test. Five percent was accepted as level of significance.

tension-type headache = conditions: Brennum et al. 1992, 1996; cited from earlier work
migraine = conditions: in vivo; cited from earlier work
[5] = 0-10 VAS intensity scale, mean, before treatment
[6] = 100-mm VAS, 6 mg/kg L-NMMA i.v. over 15 minutes, mean (SD), p < 0.05 vs pretreatment

With `COc1ccc2c(c1)[C@]13CCCC[C@@H]1[C@H](C2)N(C)CC3` [Dextromethorphan] the “Intensity of headache during active treatment” value ([1]; 0-10 VAS intensity scale, mean) was 3.6, the “Intensity of headache during the run-in period” value [1, 5] was 4.4 and the “Frequency of headache during run-in” value ([1]; before treatment) was 28 days per 4 weeks period. For the same compound, the “Mean intake of analgesics during run-in period” value ([1]; before treatment) was 1.8 dose per day, the “Patients reporting a marked effect” value ([1]; considerable relief of headache intensity and duration within very few days, of 5 patients) was “Two” and the “Frequency of headache during active treatment” value ([1]; in vivo) was 27 days per 4 weeks period. For the same compound, the “Mean intake of analgesics during active treatment” value ([1]; in vivo) was 0.5 dose per day, the “Patients reporting no effect at all” value ([1]; of 5 patients) was “two” and the “Patients reporting no side effects” value ([1]; of 5 patients) was “Four”. The “Patients with a slight relief of headache intensity” value ([1]; of 5 patients) was “one”, the “Patients with marked side effects with sedation” value ([1]; the patient with best clinical response, diminished after dose reduction to 40 mg per day) was “one” and the “Reduction of intensity of headache” value ([1]; treatment period (4 weeks, 30 mg three times per day) vs run-in, 5 patients) was 18%. For the same compound, the “Decrease of frequency of headache” value ([1]; treatment period vs run-in) was 4%, the “Decrease of intake of analgesics” value ([1]; treatment period vs run-in) was 72% and the “Reduction of duration of the individual headache episode” value ([1]; treatment period vs run-in) was 11%.

In the case of `NCC1(CC(=O)O)CCCCC1` [Gabapentin], the “Headache intensity during active treatment” value ([2]; 0-10 VAS intensity scale, mean, 4 weeks) is reported as 3.6, the “Headache intensity during run-in period” value [2, 5] is reported as 5.5 and the “Frequency of headache during run-in period” value ([2]; before treatment) is reported as 23.5 days per 4 weeks. For the same compound, the “Mean daily intake of analgesics, run-in” value ([2]; before treatment) was 1.1 dose per day, the “Individual response, one patient” value ([2]; complete relief of the headache after 2 days treatment) was “excellent effect” and the “Side effects in the third patient” value ([2]; disappeared completely after cessation of the drug intake) was “sedation, vertigo and slight nausea”. The “Frequency of headache during the active treatment period” value ([2]; in vivo) was 13 days per 4 weeks, the “Mean daily intake of analgesics, active treatment” value ([2]; in vivo) was 0.3 dose per day and the “Individual response, third patient” value ([2]; on any of efficacy parameters) was “no significant effect”. For the same compound, the “Individual response, another patient” value ([2]; on headache intensity and frequency) was “moderate effect”, the “Decrease of headache intensity” value ([2]; treatment period (4 weeks, up to 900 mg per day) vs run-in, 3 patients) was 35% and the “Decrease of frequency of headache” value ([2]; treatment period vs run-in) was 45%. The “Decrease of mean daily intake of analgesics” value ([2]; treatment period vs run-in) was 72%, the “Reduction of duration of the individual headache episode” value ([2]; treatment period vs run-in) was 8% and the “Affinity for GABA A” value (GABA A) was “fail to show affinity”. For the same compound, the “Binding affinity to the alpha-2-subunit of a calcium channel” value [3] was “showed binding affinity”.

For `CNC(=N)NCCC[C@H](N)C(=O)O` [L-NMMA, L- N^G methyl arginine hydrochloride], the “Pain scores on VAS, 30 minutes post dosing” value [4, 6] was 38 ± 18, the “Pain scores on VAS, 60 minutes post dosing” value [4, 6] was 35 ± 18 and the “Pain scores on VAS, 90 minutes post dosing” value [4, 6] was 34 ± 21. For the same compound, the “Pain scores on VAS, 120 minutes post dosing” value [4, 6] was 33 ± 21, the “Pain scores on VAS before treatment (Baseline)” value ([4]; 100-mm VAS, pre-treatment value on the L-NMMA day, 16 patients, mean (SD)) was 49 ± 16 and the “Pain intensity on VRS compared with placebo” value ([4]; Verbal Rating Scale 0-10, sum of differences, Wilcoxon, p=0.02) was “significantly lower after treatment with L-NMMA than after treatment with placebo”. The “Withdrawal from the study because of side effects” value ([4]; in vivo) was “No patients withdrew from the study because of side effects”, the “Maximum decrease in pulse rate” value ([4]; occurred 10 minutes post dosing, 6 mg/kg i.v.) was 16 ± 2% and the “Maximum increase in mean arterial blood pressure (MAP)” value ([4]; occurred 15 minutes post dosing, 6 mg/kg i.v.) was 12 ± 2%. The “Patients reporting subjective symptoms in relation to the infusion” value ([4]; of 16 patients) was “Seven”, the “Subjective symptom: a feeling of tingling in arm (number of patients)” value ([4]; of 16 patients) was 1 and the “Subjective symptom: drowsiness (number of patients)” value ([4]; of 16 patients) was 1. For the same compound, the “Subjective symptom: dryness of the mouth (number of patients)” value ([4]; of 16 patients) was 3, the “Subjective symptom: exhaustion (number of patients)” value ([4]; of 16 patients) was 1 and the “Subjective symptom: nausea (number of patients)” value ([4]; of 16 patients) was 1. The “Subjective symptom: tiredness (number of patients)” value ([4]; of 16 patients) was 2, the “Patients who used simple analgesics as rescue medication” value ([4]; of 16 patients, 7 on placebo) was “Three” and the “Reduction of pain intensity (VAS) over time compared with placebo” value ([4]; primary endpoint, ANOVA, p=0.007, 16 patients, hydrochloride) was “reduced pain intensity (VAS) over time significantly more than placebo”.

For `CNS(=O)(=O)Cc1ccc2[nH]cc(CCN(C)C)c2c1` [sumatriptan], the “Efficacy in tension-type headache” value (tension-type headache) is given as “not effective to a clinically relevant extent” and the Efficacy in migraine (migraine) is given as “highly effective”.

From patent EP1829539A2, “A method for treating tension-type headache” (priority 1996, dated 1998)
